Source: ChEMBL document CHEMBL4725228, “An aza-nucleoside, fragment-like inhibitor of the DNA repair enzyme alkyladenine glycosylase (AAG)” (Bioorg Med Chem, 2020)
Active and inactive are the calls of the source. The rule behind the calls is not given here.

Target: DNA-3-methyladenine glycosylase (Homo sapiens, UniProt P29372)
Assay: Inhibition of human AAG using HXO2/Loop01 oligonucleotide as substrate incubated for 2 hrs by colorimetric based microplate assay

Chain of DNA-3-methyladenine glycosylase (P29372 whole entry): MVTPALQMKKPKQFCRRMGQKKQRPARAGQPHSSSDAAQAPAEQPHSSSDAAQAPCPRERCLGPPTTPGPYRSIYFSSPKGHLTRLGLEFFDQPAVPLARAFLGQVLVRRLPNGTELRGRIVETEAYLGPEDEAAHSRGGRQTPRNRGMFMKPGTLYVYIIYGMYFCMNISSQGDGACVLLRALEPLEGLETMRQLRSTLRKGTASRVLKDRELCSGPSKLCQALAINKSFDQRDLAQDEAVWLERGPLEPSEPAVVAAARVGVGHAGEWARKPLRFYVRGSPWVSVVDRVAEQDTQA

SMILES	inhibition	IC50 [µM]
OC[C@H]1CN(Cc2cccnc2)C[C@@H]1O	Active	–
OC[C@H]1CN(Cc2ccncc2)C[C@@H]1O	Active	–

Other lines, results leading:

inhibition	IC50 [µM]	SMILES
–	157	OC[C@H]1CN(Cc2c[nH]cn2)C[C@@H]1O
Active	–	OC[C@H]1CN(Cc2ncc[nH]2)C[C@@H]1O
Active	–	OC[C@H]1CN(Cc2ccccn2)C[C@@H]1O
